Tests used:
Settings in all cases: exposure time: 15 min to 3 h acute
Dugesia japonica [1] = experiment: total locomotor bursts minus vehicle (bursts difference vs vehicle); higher = higher incidence or increase relative to vehicle control
Summary of the method: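 Fasted Dugesia japonica planarians, one per well of a sealed 48-well plate in 200 μL solution, were tested 15 min–3 h after exposure to half- or quarter-log concentration series. The vehicle was 0.5% DMSO or water. Total locomotor bursts, an unstimulated behaviour, came from image-based object tracking, with technical triplicates totalling n = 24. Each planarian's value had the plate vehicle-control median subtracted, without ×100 scaling. The value is the median normalised response, and crawled-out worms were excluded.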

Dugesia japonica [2] = experiment: any abnormal body shape incidence (% planarians (vehicle-normalised)); higher = higher incidence or increase relative to vehicle control
Summary of the method: (§1)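 Body shape incidence, for a given shape or for any abnormal shape, is reported ×100 and normalised to vehicle controls on the same plate, with negative values set to 0. D. japonica planarians fasted for 5–7 days were placed one per well in 200 μL in sealed 48-well plates and exposed to at least 5 concentrations. Within 15 minutes–3 hours of exposure, a researcher scored contraction, C-shape, corkscrew and hyperkinesis manually and blind, excluding worms that crawled out.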

Dugesia japonica [3] = experiment: corkscrew incidence (% planarians (vehicle-normalised)); higher = higher incidence or increase relative to vehicle control
Summary of the method: as §1

Dugesia japonica [4] = experiment: speed first 30 s blue light vs vehicle (% change vs vehicle); higher = higher incidence or increase relative to vehicle control
Summary of the method: (§2)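 Crawling speed in the dark or during blue-light periods was measured by automated tracking of intact, fasted Dugesia japonica, one per well of a 48-well plate in 200 μL. Worms were tested 15 min to 3 h after exposure in 0.5% DMSO or water vehicle. Eight worms per concentration per plate were run in technical triplicate (n = 24). Each worm was normalised to the plate's vehicle median, and the value is the median percent change; worms that crawled out were excluded.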

Dugesia japonica [5] = experiment: loss of phototaxis incidence (% planarians (vehicle-normalised)); higher = higher incidence or increase relative to vehicle control
Summary of the method: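 For each concentration, eight intact, fasted Dugesia japonica per plate were placed singly in wells of a 48-well plate in 200 μL and run in technical triplicate (n = 24). Testing took place 15 min to 3 h after exposure in 0.5% DMSO or water vehicle. Loss of phototaxis was recorded as present or absent by automated object tracking and expressed as an incidence rate normalised to in-plate vehicle controls. For this rate, ×100 was applied, negatives were set to 0, and worms that crawled out were excluded.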

Dugesia japonica [6] = experiment: resting fraction in dark vs vehicle (difference in fraction x100 vs vehicle); higher = higher incidence or increase relative to vehicle control
Summary of the method: (§3)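 In technical triplicate, eight intact, fasted Dugesia japonica per concentration per plate were tracked automatically to score the resting fraction in the dark or under blue light. Each worm had its own well of a 48-well plate containing 200 μL and was tested 15 min to 3 h after exposure in 0.5% DMSO or water vehicle. Reported values are medians of each worm's difference from the plate's vehicle median multiplied by 100, leaving out worms that crawled out.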

Dugesia japonica [7] = experiment: pharynx extrusion incidence (% planarians (vehicle-normalised)); higher = higher incidence or increase relative to vehicle control
Summary of the method: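 Fasted, intact Dugesia japonica were scored manually and blind for pharynx extrusion as a body-shape category, with the incidence normalised to in-plate vehicle controls. Testing took place 15 min to 3 h after exposure, one worm per well in 200 μL of 0.5% DMSO or water vehicle, with eight worms per concentration per plate in triplicate (n = 24). Worms that crawled out were excluded, and negative values were set to 0.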

Dugesia japonica [8] = experiment: noxious heat displacement strength vs vehicle (% change vs vehicle); higher = higher incidence or increase relative to vehicle control
Summary of the method: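 Each intact, fasted Dugesia japonica was tested alone in a well of a 48-well plate in 200 μL, 15 min to 3 h after exposure in 0.5% DMSO or water vehicle. Eight worms per concentration per plate were used in technical triplicate (n = 24). Displacement strength under noxious heat came from the scrunching assay with automated object tracking and is given as the median percent change against the plate's vehicle median, excluding worms that crawled out.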

Dugesia japonica [9] = experiment: C-shape incidence (% planarians (vehicle-normalised)); higher = higher incidence or increase relative to vehicle control
Summary of the method: as §1

Dugesia japonica [10] = experiment: loss of heat-induced scrunching incidence (% planarians (vehicle-normalised)); higher = higher incidence or increase relative to vehicle control
Summary of the method: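 Planarians of the species D. japonica, fasted for 5–7 days, were placed singly in wells of sealed 48-well plates in 200 μL and exposed to at least 5 concentrations, 24 worms per concentration in technical triplicates. Scrunching in response to a noxious heat stimulus was tested within 15 minutes–3 hours, and any worm that crawled out was excluded. The reported figure is the incidence of non-scrunching worms, normalised to vehicle controls on the same plate. This incidence is given ×100, with negatives set to 0.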

Dugesia japonica [11] = experiment: speed in dark vs vehicle (% change vs vehicle); higher = higher incidence or increase relative to vehicle control
Experimental: (§4)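 Adult asexual Dugesia japonica planarians (1 per well, 48-well plate, n=24 over technical triplicates) were exposed acutely (15 min to 3 h) to each compound (0.5% DMSO or water vehicle) and screened on a robotic platform for crawl-out, stickiness, body shape, phototaxis, noxious-heat scrunching and locomotion endpoints. Binary endpoints are incidence rate x100 normalised to in-plate vehicle controls. Continuous endpoints are the median response normalised to the plate vehicle median, as % change or difference. Negative incidences after vehicle subtraction were set to 0.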

Dugesia japonica [12] = experiment: hyperkinesis incidence (% planarians (vehicle-normalised)); higher = higher incidence or increase relative to vehicle control
Summary of the method: as §1

Dugesia japonica [13] = experiment: contracted body shape incidence (% planarians (vehicle-normalised)); higher = higher incidence or increase relative to vehicle control
Summary of the method: as §1

Dugesia japonica [14] = experiment: anxiety (time in outer well region) vs vehicle (% change vs vehicle); higher = higher incidence or increase relative to vehicle control
Summary of the method: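 Dugesia japonica planarians fasted for 5–7 days were placed one per well in 200 μL in sealed 48-well plates and exposed to at least 5 concentrations, with n = 24 per concentration in technical triplicates, then screened within 15 minutes–3 hours. Object tracking in MATLAB or Python measured the time each worm spent in the outer portion of the well, and worms that crawled out were excluded. Each response was divided by, or reduced by, the plate vehicle median and multiplied by 100. The reported value is the median of these normalized responses.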

Dugesia japonica [15] = experiment: resting fraction in blue light vs vehicle (difference in fraction x100 vs vehicle); higher = higher incidence or increase relative to vehicle control
Summary of the method: as §3

Dugesia japonica [16] = experiment: crawl-out incidence (% planarians); higher = higher incidence or increase relative to vehicle control
Experimental: as §4, with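 “x100.” for “x100 normalised to in-plate vehicle controls.”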

Dugesia japonica [17] = experiment: stickiness incidence (% planarians (vehicle-normalised)); higher = higher incidence or increase relative to vehicle control
Summary of the method: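 In the Stickiness assay, fasted Dugesia japonica planarians were each placed in one well of a sealed 48-well plate containing 200 μL of solution, with 0.5% DMSO or water as vehicle. Testing took place 15 min–3 h after exposure to half- or quarter-log concentration series. Stickiness was recorded as a binary endpoint, and its incidence was expressed relative to in-plate vehicle incidence after pooling technical triplicates and removing worms that crawled out. Negative values were set to 0 and all values were multiplied by 100.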

Dugesia japonica [18] = experiment: speed second 30 s blue light vs vehicle (% change vs vehicle); higher = higher incidence or increase relative to vehicle control
Summary of the method: as §2

Dugesia japonica [19] = experiment: crawl-out incidence (% planarians); higher = higher incidence or increase relative to vehicle control; remark: listed apart in the source
Dugesia japonica [20] = experiment: speed in dark vs vehicle (% change vs vehicle); higher = higher incidence or increase relative to vehicle control; remark: listed apart in the source
Summary of the method: as §2

CN(C)CCC[C@@]1(c2ccc(F)cc2)OCc2cc(C#N)ccc21 [escitalopram] (10 µM)
total locomotor bursts minus vehicle (Dugesia japonica [1]): 0.5
any abnormal body shape incidence (Dugesia japonica [2]): 0
corkscrew incidence (Dugesia japonica [3]): 0
speed first 30 s blue light (Dugesia japonica [4]): 23.1
loss of phototaxis incidence (Dugesia japonica [5]): ≤ 0
resting fraction in dark (Dugesia japonica [6]): -4.34
pharynx extrusion incidence (Dugesia japonica [7]): 0
noxious heat displacement strength (Dugesia japonica [8]): -2.51
C-shape incidence (Dugesia japonica [9]): 0
loss of heat-induced scrunching incidence (Dugesia japonica [10]): 8.33
speed in dark (Dugesia japonica [11]): 22.6
hyperkinesis incidence (Dugesia japonica [12]): 0
contracted body shape incidence (Dugesia japonica [13]): 0
anxiety (Dugesia japonica [14]): 1.04
resting fraction in blue light (Dugesia japonica [15]): 0
crawl-out incidence (Dugesia japonica [16]): 0
stickiness incidence (Dugesia japonica [17]): 16.7
speed second 30 s blue light (Dugesia japonica [18]): 16

O=C1CCc2ccc(OCCCCN3CCN(c4cccc(Cl)c4Cl)CC3)cc2N1 [aripiprazole] (1 µM)
total locomotor bursts minus vehicle (Dugesia japonica [1]): -5.5
any abnormal body shape incidence (Dugesia japonica [2]): 0
corkscrew incidence (Dugesia japonica [3]): 0
speed first 30 s blue light (Dugesia japonica [4]): 26
loss of phototaxis incidence (Dugesia japonica [5]): 29.2
resting fraction in dark (Dugesia japonica [6]): -2.8
pharynx extrusion incidence (Dugesia japonica [7]): 0
noxious heat displacement strength (Dugesia japonica [8]): 14.8
C-shape incidence (Dugesia japonica [9]): 0
loss of heat-induced scrunching incidence (Dugesia japonica [10]): ≤ 0
speed in dark (Dugesia japonica [11]): 42.8
hyperkinesis incidence (Dugesia japonica [12]): 0
contracted body shape incidence (Dugesia japonica [13]): 0
anxiety (Dugesia japonica [14]): 1.67
resting fraction in blue light (Dugesia japonica [15]): -0.33
crawl-out incidence (Dugesia japonica [16]): 0
stickiness incidence (Dugesia japonica [17]): ≤ 0
speed second 30 s blue light (Dugesia japonica [18]): 14.3

CN1CC(=O)N=C1NC(=O)Nc1cccc(Cl)c1 [fenobam] (56.2 µM)
total locomotor bursts minus vehicle (Dugesia japonica [1]): -0.5
any abnormal body shape incidence (Dugesia japonica [2]): 0
corkscrew incidence (Dugesia japonica [3]): 0
speed first 30 s blue light (Dugesia japonica [4]): -6.17
loss of phototaxis incidence (Dugesia japonica [5]): 12.5
resting fraction in dark (Dugesia japonica [6]): -0.17
pharynx extrusion incidence (Dugesia japonica [7]): 0
noxious heat displacement strength (Dugesia japonica [8]): -21.7
C-shape incidence (Dugesia japonica [9]): 0
loss of heat-induced scrunching incidence (Dugesia japonica [10]): ≤ 0
speed in dark (Dugesia japonica [11]): -1.71
hyperkinesis incidence (Dugesia japonica [12]): 0
contracted body shape incidence (Dugesia japonica [13]): 0
anxiety (Dugesia japonica [14]): 9.05
resting fraction in blue light (Dugesia japonica [15]): 0
crawl-out incidence (Dugesia japonica [16]): 0
stickiness incidence (Dugesia japonica [17]): ≤ 0
speed second 30 s blue light (Dugesia japonica [18]): -8.21

CC(NC(C)(C)C)C(=O)c1cccc(Cl)c1 (stereo unspecified) [bupropion] (10 µM)
total locomotor bursts minus vehicle (Dugesia japonica [1]): -6
any abnormal body shape incidence (Dugesia japonica [2]): 0
corkscrew incidence (Dugesia japonica [3]): 0
speed first 30 s blue light (Dugesia japonica [4]): -36.3
loss of phototaxis incidence (Dugesia japonica [5]): 12.5
resting fraction in dark (Dugesia japonica [6]): 34.4
pharynx extrusion incidence (Dugesia japonica [7]): 0
noxious heat displacement strength (Dugesia japonica [8]): -1.43
C-shape incidence (Dugesia japonica [9]): 0
loss of heat-induced scrunching incidence (Dugesia japonica [10]): 4.17
speed in dark (Dugesia japonica [11]): -21.4
hyperkinesis incidence (Dugesia japonica [12]): 0
contracted body shape incidence (Dugesia japonica [13]): 0
anxiety (Dugesia japonica [14]): 3.29
resting fraction in blue light (Dugesia japonica [15]): 12.6
crawl-out incidence (Dugesia japonica [16]): 0
stickiness incidence (Dugesia japonica [17]): ≤ 0
speed second 30 s blue light (Dugesia japonica [18]): 0.8

CN1C(=O)CN=C(c2ccccc2)c2cc(Cl)ccc21 [diazepam] (1 µM)
total locomotor bursts minus vehicle (Dugesia japonica [1]): -4.5
any abnormal body shape incidence (Dugesia japonica [2]): 0
corkscrew incidence (Dugesia japonica [3]): 0
speed first 30 s blue light (Dugesia japonica [4]): 30.1
loss of phototaxis incidence (Dugesia japonica [5]): 8.33
resting fraction in dark (Dugesia japonica [6]): -6.08
pharynx extrusion incidence (Dugesia japonica [7]): 0
noxious heat displacement strength (Dugesia japonica [8]): -18.8
C-shape incidence (Dugesia japonica [9]): 0
loss of heat-induced scrunching incidence (Dugesia japonica [10]): 12.5
speed in dark (Dugesia japonica [11]): 23.3
hyperkinesis incidence (Dugesia japonica [12]): 0
contracted body shape incidence (Dugesia japonica [13]): 0
anxiety (Dugesia japonica [14]): 2.23
resting fraction in blue light (Dugesia japonica [15]): -0.17
crawl-out incidence (Dugesia japonica [16]): 0
stickiness incidence (Dugesia japonica [17]): 4.17
speed second 30 s blue light (Dugesia japonica [18]): -4.48

O=C(O)C(=O)O [oxalic acid] (1000 µM)
total locomotor bursts minus vehicle (Dugesia japonica [1]): 4
any abnormal body shape incidence (Dugesia japonica [2]): 62.5
corkscrew incidence (Dugesia japonica [3]): 0
speed first 30 s blue light (Dugesia japonica [4]): -88.1
loss of phototaxis incidence (Dugesia japonica [5]): 54.2
resting fraction in dark (Dugesia japonica [6]): 60.5
pharynx extrusion incidence (Dugesia japonica [7]): 0
noxious heat displacement strength (Dugesia japonica [8]): -57
C-shape incidence (Dugesia japonica [9]): 41.7
loss of heat-induced scrunching incidence (Dugesia japonica [10]): 83.3
hyperkinesis incidence (Dugesia japonica [12]): 0
contracted body shape incidence (Dugesia japonica [13]): 50
anxiety (Dugesia japonica [14]): -19.2
resting fraction in blue light (Dugesia japonica [15]): 63.9
crawl-out incidence (Dugesia japonica [19]): 0
speed in dark (Dugesia japonica [20]): -53.2
stickiness incidence (Dugesia japonica [17]): ≤ 0
speed second 30 s blue light (Dugesia japonica [18]): -90.4

CN(C)CCC[C@@]1(c2ccc(F)cc2)OCc2cc(C#N)ccc21 [escitalopram] (316 µM)
total locomotor bursts minus vehicle (Dugesia japonica [1]): 16
any abnormal body shape incidence (Dugesia japonica [2]): 50
corkscrew incidence (Dugesia japonica [3]): 0
speed first 30 s blue light (Dugesia japonica [4]): -31.5
loss of phototaxis incidence (Dugesia japonica [5]): ≤ 0
resting fraction in dark (Dugesia japonica [6]): -1.78
pharynx extrusion incidence (Dugesia japonica [7]): 0
noxious heat displacement strength (Dugesia japonica [8]): -39.8
C-shape incidence (Dugesia japonica [9]): 0
loss of heat-induced scrunching incidence (Dugesia japonica [10]): 25
hyperkinesis incidence (Dugesia japonica [12]): 50
contracted body shape incidence (Dugesia japonica [13]): 0
anxiety (Dugesia japonica [14]): 1.26
resting fraction in blue light (Dugesia japonica [15]): -0.69
crawl-out incidence (Dugesia japonica [19]): 0
speed in dark (Dugesia japonica [20]): -24.6
stickiness incidence (Dugesia japonica [17]): ≤ 0
speed second 30 s blue light (Dugesia japonica [18]): -35.5

From the supplement of paper PMC11781733
